Reference: patent US9078446B2, “Use of N-(tetrazol-4-yl)- or N-(triazol-3-yl)arylcarboxamides or their salts for controlling unwanted plants in areas of transgenic crop plants being tolerant to HPPD inhibitor herbicides” (BAYER INTELLECTUAL PROPERTY GMBH, priority 2011, dated 2015)

Tests used:
Format in all cases: in vivo
[1] = system: non-transformed tobacco plants (Wt); test: Symptoms due to herbicide application on tobacco plants (damage classes 0-3); conditions: one week after application
Description: (§1) Seeds harvested from TO transformants will be put on standard soil for germination. Three weeks later plantlets (T1) will be transferred to single pots and grown under standard cultivation conditions (PCT/EP2010/070575, published as WO 2011/076889). Two weeks later, plants were sprayed with several N-(tetrazol-4-yl)- or N-(triazol-3-yl)arylcarboxamides as defined above.
(§2) Tables F1 to F5: Evaluation of the Symptoms Observed Due to the Application of the Herbicides on Transgenic Tobacco Plants, Expressing the Mutant Pseudomonas fluorescens HPPD G336W, the Avena HPPD (AvHPPD), the HPPD from Kordia algicida FMP27 or the HPPD from Blepharisma japonicum (FMP37), Compared to Non-Tranformed Tobacco Plants (“Wt”).
(§3) The herbicides (with “g Al/ha” meaning “g active ingredient/ha”) were applied on 8 to 10 plants originated from 1 to 3 independent transgenic events per transgene.
(§4) The symptoms were evaluated and classified as following: • 3=Very strong damage • 2=Strong damage • 1=Light and transient damage • 0=No damage

[2] = system: transgenic tobacco plants expressing Avena HPPD (AvHPPD); test: Symptoms due to herbicide application on transgenic tobacco plants (damage classes 0-3); conditions: AvHPPD line 659, one week after application
Description: (§5) Genes coding for the selected HPPD were obtained from a member of the group of organisms consisting of Avena sativa, Pseudomonas fluorescens mutant G336W, Blepharisma japonicum and Kordia algicida and cloned into the binary vector pBin19 allowing the integration of DNA into the tobacco genome, under the control of the CaMV35S promoter. For the cloning procedures, see A2 above for Avena sativa, see B2 above for Pseudomonas fluorescens, mutant G336W, see PCT/EP2010/070567 (published as WO 2011/076882, Example 5; for Blepharisma japonicum (FMP37) and see PCT/EP2010/070575, Example 5 for Kordia algicida (FMP27). Between the sequence corresponding to the promoter and the sequence coding for the HPPD a DNA sequence coding for a transit peptide to the chloroplast was inserted, in order to add at the N-terminal extremity of the protein a target signal to allow the localization of the HPPD protein into the plant chloroplast.
as §1, §2, §3, §4

[3] = system: transgenic tobacco plants expressing HPPD from Blepharisma japonicum (FMP37); test: as above; conditions: one week after application
Description: as §5, §1, §2, §3, §4

[4] = system: transgenic tobacco plants expressing HPPD from Kordia algicida FMP27; test: as above; conditions: one week after application
Description: as §5, §1, §2, §3, §4

[5] = system: transgenic tobacco plants expressing mutant Pseudomonas fluorescens HPPD G336W (PfHPPD-G336W); test: as above; conditions: PfHPPD-G336W line 646, one week after application
Description: as §5, §1, §2, §3, §4

[6] = system: transgenic tobacco plants expressing tolerant HPPD enzymes; test: Tolerance of tobacco plants expressing tolerant HPPD enzymes (all transgenes); conditions: for tolerance of the transgenic tobacco plants (symptoms due to application of the herbicide): T1 plants sprayed, evaluated one week after application; for sensitivity of transgenic tobacco plants compared to wild type (wt) plants: all tested independent lines, agronomically relevant dose
Description: as §5, §1, §2, §3, §4

[7] = system: soybean plants expressing Pseudomonas fluorescens G336W mutant, FMP 27 and FMP 37; test: Tolerance to HPPD inhibitors of soybean plants expressing tolerant HPPD enzymes; conditions: T1 soybean plants; one week after application
Description: (§6) Genes coding for the selected HPPD were obtained from a member of the group of organisms consisting of Blepharisma japonicum and Kordia algicida and cloned into an appropriate binary vector allowing the integration of DNA into the soybean genome, under the control of the CaMV35S promoter. For the respective cloning procedures, see WO2011076882 (PCT/EP2010/070567), Example 9; for Blepharisma japonicum (FMP37) and WO2011076889 (PCT/EP2010/070575), Example 9 for Kordia algicida (FMP27).
Between the sequence corresponding to the promoter and the sequence coding for the HPPD a DNA sequence coding for a transit peptide to the chloroplast was inserted, in order to add at the N-terminal extremity of the protein a target signal to allow the localization of the HPPD protein into the plant chloroplast. By using the vectors “pFCO112” (Blepharisma japonicum, WO2011076882), pFCO116 (Korida algicida, WO2011076889), and pFCO117” (see Example B2, above), soybean transformation was achieved as described in Example 10 of WO2011076882 (PCT/EP2010/070567) for Blepharisma japonicum (FMP37) and WO2011076889 (PCT/EP2010/070575) for Kordia algicida (FMP27). Seeds from TO events showing tolerance to tembotrione were harvested.
T1 Soybean seeds were transferred to single pots and grown under standard cultivation conditions, see WO2011076882.
Two weeks later, plants will be sprayed with several N-(tetrazol-4-yl)- or N-(triazol-3-yl)arylcarboxamides as defined above.

[8] = system: cotton plants expressing FMP 27 and FMP 37; test: Tolerance to HPPD inhibitors of cotton plants expressing tolerant HPPD enzymes; conditions: T1 cotton plants; one week after application
Description: as §6, with “the cotton” for “the soybean”, “Example 11;” for “Example 9;”, “Example 11” for “Example 9”
Between the sequence corresponding to the promoter and the sequence coding for the HPPD a DNA sequence coding for a transit peptide to the chloroplast was inserted, in order to add at the N-terminal extremity of the protein a target signal to allow the localization of the HPPD protein into the plant chloroplast. Cotton transformation was achieved as described in Example 12 of WO2011076882 (PCT/EP2010/070567) for Blepharisma japonicum (FMP37) and WO2011076889 (PCT/EP2010/070575) for Kordia algicida (FMP27). Seeds from T0 events showing tolerance to tembotrione were harvested.
T1 Cotton seeds were transferred to single pots and grown under standard cultivation conditions, see WO2011076882 (PCT/EP2010/070567) for Blepharisma japonicum (FMP37) and WO2011076889 (PCT/EP2010/070575) for Kordia algicida (FMP27).
At least 4 weeks later, plants will be sprayed with several N-(tetrazol-4-yl)- or N-(triazol-3-yl)arylcarboxamides as defined above.

[9] = 50 g AI/ha, WP20 + oilseed rape methyl ester + ammonium sulfate

Cn1nnnc1NC(=O)c1ccc(C(F)(F)F)cc1S(C)(=O)=O [Compound 4-25] was tested, and the “number of plants with Damage 0 (No damage)” value (“number … (No damage)” for short) ([1]; 50 g Al/ha) was 0, the “number of plants with Damage 1 (Light and transient damage)” value (“number … (Light and transient damage)” below) ([1]; 50 g Al/ha) was 0 and the “number of plants with Damage 2 (Strong damage)” value (“number … (Strong damage)” below) ([1]; 50 g Al/ha) was 0. The “number of plants with Damage 3 (Very strong damage)” value (shortened to “number … (Very strong damage)”) ([1]; 50 g Al/ha) was 10, the “number … (No damage)” value ([2]; 50 g Al/ha) was 6 and the “number … (Light and transient damage)” value ([2]; 50 g Al/ha) was 1. The “number … (Strong damage)” value ([2]; 50 g Al/ha) was 0, the “number … (Very strong damage)” value ([2]; 50 g Al/ha) was 3 and the “number … (No damage)” value ([3]; FMP37 line 749, 50 g Al/ha) was 8. For the same compound, the “number … (Light and transient damage)” value ([3]; FMP37 line 749, 50 g Al/ha) was 0, the “number … (Strong damage)” value ([3]; FMP37 line 749, 50 g Al/ha) was 0 and the “number … (Very strong damage)” value ([3]; FMP37 line 749, 50 g Al/ha) was 2. The “number … (No damage)” value ([3]; FMP37 line 754, 50 g Al/ha) was 3, the “number … (Light and transient damage)” value ([3]; FMP37 line 754, 50 g Al/ha) was 5 and the “number … (Strong damage)” value ([3]; FMP37 line 754, 50 g Al/ha) was 1. For the same compound, the “number … (Very strong damage)” value ([3]; FMP37 line 754, 50 g Al/ha) was 1, the “number … (No damage)” value ([3]; FMP37 line 795, 50 g Al/ha) was 7 and the “number … (Light and transient damage)” value ([3]; FMP37 line 795, 50 g Al/ha) was 0. The “number … (Strong damage)” value ([3]; FMP37 line 795, 50 g Al/ha) was 1, the “number … (Very strong damage)” value ([3]; FMP37 line 795, 50 g Al/ha) was 2 and the “number … (No damage)” value ([4]; FMP27 line 733, 50 g Al/ha) was 9. The “number … (Light and transient damage)” value ([4]; FMP27 line 733, 50 g Al/ha) was 1, the “number … (Strong damage)” value ([4]; FMP27 line 733, 50 g Al/ha) was 0 and the “number … (Very strong damage)” value ([4]; FMP27 line 733, 50 g Al/ha) was 0. For the same compound, the “number … (No damage)” value ([4]; FMP27 line 734, 50 g Al/ha) was 6, the “number … (Light and transient damage)” value ([4]; FMP27 line 734, 50 g Al/ha) was 3 and the “number … (Strong damage)” value ([4]; FMP27 line 734, 50 g Al/ha) was 0. The “number … (Very strong damage)” value ([4]; FMP27 line 734, 50 g Al/ha) was 1, the “number … (No damage)” value ([4]; FMP27 line 735, 50 g Al/ha) was 5 and the “number … (Light and transient damage)” value ([4]; FMP27 line 735, 50 g Al/ha) was 3. For the same compound, the “number … (Strong damage)” value ([4]; FMP27 line 735, 50 g Al/ha) was 0, the “number … (Very strong damage)” value ([4]; FMP27 line 735, 50 g Al/ha) was 0 and the “number … (No damage)” value ([5]; 50 g Al/ha) was 10. The “number … (Light and transient damage)” value ([5]; 50 g Al/ha) was 0, the “number … (Strong damage)” value ([5]; 50 g Al/ha) was 0 and the “number … (Very strong damage)” value ([5]; 50 g Al/ha) was 0. The “tolerance of the transgenic tobacco plants (symptoms due to application of the herbicide)” value [6] was “good tolerance”, the “sensitivity of transgenic tobacco plants compared to wild type (wt) plants” value [6] was “less sensitive” and the “tolerance of transgenic plants compared to the wild-type soybean plants” value [7] was “superior tolerance”. The “tolerance of transgenic plants compared to the wild-type cotton plants” value [8] was “superior tolerance”.
For COCc1c(S(C)(=O)=O)ccc(C(=O)Nc2nnnn2C)c1Cl [Compound 4-253], the “number … (No damage)” value [1, 9] was 0, the “number … (Light and transient damage)” value [1, 9] was 0 and the “number … (Strong damage)” value [1, 9] was 0. For the same compound, the “number … (Very strong damage)” value [1, 9] was 10, the “number … (No damage)” value ([2]; 50 g AI/ha) was 3 and the “number … (Light and transient damage)” value ([2]; 50 g AI/ha) was 0. For the same compound, the “number … (Strong damage)” value ([2]; 50 g AI/ha) was 0, the “number … (Very strong damage)” value ([2]; 50 g AI/ha) was 7 and the “number … (No damage)” value ([3]; 50 g AI/ha, FMP37 line 749) was 7. For the same compound, the “number … (Light and transient damage)” value ([3]; 50 g AI/ha, FMP37 line 749) was 2, the “number … (Strong damage)” value ([3]; 50 g AI/ha, FMP37 line 749) was 0 and the “number … (Very strong damage)” value ([3]; 50 g AI/ha, FMP37 line 749) was 1. The “number … (No damage)” value ([3]; 50 g AI/ha, FMP37 line 754) was 6, the “number … (Light and transient damage)” value ([3]; 50 g AI/ha, FMP37 line 754) was 2 and the “number … (Strong damage)” value ([3]; 50 g AI/ha, FMP37 line 754) was 1. For the same compound, the “number … (Very strong damage)” value ([3]; 50 g AI/ha, FMP37 line 754) was 1, the “number … (No damage)” value ([3]; 50 g AI/ha, FMP37 line 795) was 3 and the “number … (Light and transient damage)” value ([3]; 50 g AI/ha, FMP37 line 795) was 4. The “number … (Strong damage)” value ([3]; 50 g AI/ha, FMP37 line 795) was 0, the “number … (Very strong damage)” value ([3]; 50 g AI/ha, FMP37 line 795) was 3 and the “number … (No damage)” value ([4]; 50 g AI/ha, FMP27 line 733) was 4. For the same compound, the “number … (Light and transient damage)” value ([4]; 50 g AI/ha, FMP27 line 733) was 4, the “number … (Strong damage)” value ([4]; 50 g AI/ha, FMP27 line 733) was 2 and the “number … (Very strong damage)” value ([4]; 50 g AI/ha, FMP27 line 733) was 0. The “number … (No damage)” value ([4]; 50 g AI/ha, FMP27 line 734) was 6, the “number … (Light and transient damage)” value ([4]; 50 g AI/ha, FMP27 line 734) was 1 and the “number … (Strong damage)” value ([4]; 50 g AI/ha, FMP27 line 734) was 2. The “number … (Very strong damage)” value ([4]; 50 g AI/ha, FMP27 line 734) was 1, the “number … (No damage)” value ([4]; 50 g AI/ha, FMP27 line 735) was 2 and the “number … (Light and transient damage)” value ([4]; 50 g AI/ha, FMP27 line 735) was 5. For the same compound, the “number … (Strong damage)” value ([4]; 50 g AI/ha, FMP27 line 735) was 0, the “number … (Very strong damage)” value ([4]; 50 g AI/ha, FMP27 line 735) was 3 and the “number … (No damage)” value ([5]; 50 g AI/ha) was 9. The “number … (Light and transient damage)” value ([5]; 50 g AI/ha) was 0, the “number … (Strong damage)” value ([5]; 50 g AI/ha) was 0 and the “number … (Very strong damage)” value ([5]; 50 g AI/ha) was 1. The “tolerance of the transgenic tobacco plants (symptoms due to application of the herbicide)” value [6] was “good tolerance”, the “sensitivity of transgenic tobacco plants compared to wild type (wt) plants” value [6] was “less sensitive” and the “tolerance of transgenic plants compared to the wild-type soybean plants” value [7] was “superior tolerance”. The “tolerance of transgenic plants compared to the wild-type cotton plants” value [8] was “superior tolerance”.
